Reference: patent publication US20220071955A1, “Methods of Treatment, Prevention and Diagnosis” (The Walter and Eliza Hall Institute of Medical Research, priority 2018, published 2022)
Entries after “also recorded” stand apart in the source; their conditions may differ.

Experiments:
[1] = system: human iPSC-derived motor neurons; test: IFNB1 and TNF gene induction (qPCR) in human iPSC-derived motor neurons; assay type: cell-based; conditions: motor neurons from healthy controls and ALS patients with TDP-43 mutations
From the text: (§1) Total RNA was isolated using the ISOLATE II RNA Mini Kit (Bioline) as per manufacturers' instructions and reverse transcribed using oligo(dT) nucleotides. Primers for cytokines, mitochondrial DNA and housekeeping genes were used as described previously (White et al., 2014; De Nardo et al., 2014). Others were designed using the Integrated DNA Technologies online tool as follows: hsIFNB1 FW, 5′-TGTCGCCTACTACCTGTTGTGC-3′ (SEQ ID NO:17); hsIFNB1 RV, 5′-AACTGCAACCTTTCGAAGCC-3′ (SEQ ID NO:18); mmIfnb1 FW: 5′-CCAGCTCCAAGAAAGGACGA-3′ (SEQ ID NO:19); mmIfnb1 RV: 5′-TGGATGGCAAAGGCAGTGTA-3′ (SEQ ID NO:20); mmIfna6 FW: 5′-GCTTTCCTGATGGTTTTGGTG-3′ (SEQ ID NO:21); mmIfna6 RV: 5′-AGGCTTTCTTGTTCCTGAGG-3′ (SEQ ID NO:22). Quantitative real-time PCR was performed using SYBR Green/ROX qPCR Master Mix (Thermo Scientific) on a ViiA 7 Real-Time PCR system (Thermo Scientific).
(§2) The established human iPSC lines used in this study included two controls (NCRM-1 and NCRM-5) from the National Institute of Neurological Disorders and Stroke, one control and one ALS patient from Alessandro Rosa, one ALS patient from RIKEN and one ALS patient (TALSTDP-47.10) from the Target ALS Foundation. All iPSCs were maintained on Matrigel (Corning, 354277)-coated 6-well plates in mTeSR1 (STEMCell Technologies, 85850) containing 1× Primocin (Invivogen, ant-pm-1) and passaged 1:6 using ReLeSR (STEMCell Technologies, 05872) with ROCK inhibitor Y-27632 (STEMCell Technologies, 72304) for the first 24 hours. The medium was replaced daily. Cells were cyropreserved in mTeSR1/10% DMSO.
(§3) Differentiation of iPSCs into ChAT^+ motor neurons was performed as described previously (Du et al., 2015) All medium and reagents from Gibco unless otherwise stated.
(§4) Human iPSCs were cultured in a chemically defined Neural Medium: DMEM/F12:Neurobasal (1:1) supplemented with 0.5×N2, 0.5×B27, 0.1 mM L-ascorbic acid (Sigma), 1× Glutamax and 1× Primocin (Invivogen) containing 3 μM CHIR99021 (STEMCell Technologies, 72054), 2 μM Dorsomorphin (STEMCell Technologies, 72102) and 2 μM SB431542 (STEMCell Technologies, 72234) for 6 days, and the medium was changed every other day.
The NEPs were dissociated with ReLeSR and cultured 1:6 on Matrigel-coated plates in the Neural Medium containing 1 μM CHIR99021, 2 μM Dorsomorphin and 2 μM SB431542 for 6 days. Y-27632 was used for the first 24 hours. The medium was changed every other day. At this stage of differentiation, MNPs were either expanded in the Neural Medium containing 3 μM CHIR99021, 2 μM Dorsomorphin, 2 μM SB431542, 0.1 μM all-trans retinoic acid (Sigma, R2500), 0.5 μM Purmorphamine (STEMCell Technologies, 72204) and 0.5 mM Valporic Acid (STEMCell Technologies, 72292) prior to MN diffrenertiation or cryopreserved in DMEM/F12 containing 10% FBS and 10% DMSO.
The MNPs were dissociated with ReLeSR and cultured on Matrigel-coated plates in the Neural Medium containing 0.5 μM all-trans RA and 0.1 μM Pur for 6 days into premature MNX1^+ MN. Y-27632 was used for the first 24 hours and the medium was replaced every other day. Subsequently, cells were detached with Accutase (Merck Millipore, SCR005) to generate single cell suspension and matured in the medium supplemented with 0.1 μM Compound E (STEMCell Technologies, 73954) for 10 days into ChAT^+ MNs. The medium was replaced every other day. Cells were plated in Matrigel-coated 8-well chamber slides (iBidi, 80826) to confirm cellular markers of MNs, including MNX1 (Merck Millipore, ABN174) and ChAT (Merck Millipore, […]) along with βIII-Tubulin (Promega, clone 5G8, G7121) staining using an inverted SP8 confocal microscopy (Leica).

[2] = system: TDP-43 overexpressing Thp1 cells; test: IFNB1 and TNF induction (qPCR) in TDP-43 overexpressing Thp1 cells; assay type: cell-based, human; conditions: Thp1 cells overexpressing TDP-43 (WT or Q331K)
Method: (§5) Immortalised mouse embryonic fibroblasts (MEFs) lacking MAVS, PKR, cGAS, STING, Bax/Bak, Mcl1 or WT control were maintained in DME/KELSO medium (in-house DMEM containing 40 mM sodium bicarbonate, 1 mM HEPES, 0.0135 mM folic acid, 0.24 mM L-asparagine, 0.55 mM L-arginine, 1×Pen/Strep and 22.2 mM D-glucose) supplemented with 10% FBS (Sigma-Aldrich). Transfection of MEFs was performed using FuGENE HD (Promega). AGK−/− (gift from D. Stojanovski) and WT HEK293T cells were maintained in DMEM supplemented with 10% FBS, 100 U/mL Penicillin and 100 μg/mL Streptomycin. Lipofectamine 2000 (Life Technologies) was used to transfect HEK293T cells according to manufacturers' instructions. Human monocytic THP-1 cells were grown in RPMI-1640 with 10% FBS, 100 U/mL Penicillin and 100 μg/mL Streptomycin. The above cell culture was conducted at 37° C. in a humidified atmosphere with 10% CO2. […] The depletion was analysed using real-time qPCR to measure expression of mitochondrial DNA genes and nuclear genes (see Quantitative real-time PCR below).
as §1
Cytokine expression from qPCR is represented as gene expression relative to Hprt expression as δCt method. Where indicated, relative gene expression in TDP-43 WT or mutant overexpressing cells was further normalised to expression in vector control transfected/overexpressed cells of the same genotype in the same experiment and represented as fold change. Data are typically mean±s.e.m and analysed by t-test between two groups or one- or two-way ANOVA followed by a Sidak or Dunnett multiple comparison test as appropriate. GraphPad Prism 7 was used for all charts and statistical analyses. A P values <0.05 was considered as significant.
Finally, to determine if pharmacological blockade of the cGAS-STING pathway is feasible, recently described inhibitors of cGAS (RU.521, described in Vincent et al., 2017) and STING (H-151 described in Haag et al) were tested. […]

[3] = system: TDP-43 mutant mice; test: Rotarod test in TDP-43 mutant mice with established disease; assay type: in vivo, mouse; conditions: H-151 (3.75 mM) i.p. every the other day for 4 weeks from 120 days of age
[4] = system: ALS patient iPSC-derived motor neurons; test: LDH cytotoxicity assay and brightfield imaging of iPSC-derived motor neurons; assay type: cell-based, human; conditions: H-151 1 μM, 4-week treatment
From the text: as §2, §3
as §4, with “day. […]” for “day.”

[5] = system: MEFs; test: Super-resolution confocal microscopy of TDP-43-mediated DNA relocation from mitochondria into the cytoplasm; assay type: cell-based, mouse; conditions: CsA 25 μM
Method: MEF cell lines expressing doxycycline-induced Flagged TDP-43 were seeded onto glass coverslips (18 mm×18 mm, thickness 1½, Zeiss) for indicated times and prepared for imaging as previously described (McArthur et al., 2018). In brief, cells were fixed, blocked and incubated overnight at 4° C. with primary antibodies as follows: anti-Flag (In-house, 9H1), anti-DNA (ProGen, AC-30-10) and anti-TOM20 (Santa Cruz Biotech, sc-11415) in blocking buffer. Following two washes in PBS and an one-hour incubation with secondary antibodies [goat anti-rabbit AF647 (A21245), goat anti-mouse AF488 (A11001 and goat anti-rat AF568, A11077) from Life Technologies], coverslips were mounted onto the microscopy slide using Prolong Diamond Antifade Mountant (ThermoFisher Scientific). Three color imaging was performed on the OMX-SR system (GE Healthcare) using a 60 Å˜1.42 NA oil immersion lens (Olympus).

[6] = system: 293T cells; test: Ifnb1 gene expression induced by TDP-43 (qPCR); assay type: cell-based; conditions: CsA 25 μM
Method: as §5
Total RNA was isolated using the ISOLATE II RNA Mini Kit (Bioline) as per manufacturers' instructions and reverse transcribed using oligo(dT) nucleotides. […] Quantitative real-time PCR was performed using SYBR Green/ROX qPCR Master Mix (Thermo Scientific) on a ViiA 7 Real-Time PCR system (Thermo Scientific).

| Molecule | IFNB1 gene induction ([1]; ROS inhibitors 0.1-1 μM) | TNF gene induction ([1]; ROS inhibitors 0.1-1 μM) | IFNB1 induction [2] | TNF induction [2] | also measured |
| --- | --- | --- | --- | --- | --- |
| COC1=C(OC)C(=O)C(CCCCCCCCCC[P+](c2ccccc2)(c2ccccc2)c2ccccc2)=C(C)C1=O [MitoQ] | prevent | prevent |  |  |  |
| CCc1ccc(NC(=O)Nc2c[nH]c3ccccc23)cc1 [H-151] |  |  | prevent | prevent | latency to fall in a rotarod test [3]: significantly improved; IFNB1 gene induction ([1]; H-151 1 μM): prevent; TNF gene induction ([1]; H-151 1 μM): prevent; ALS-associated cytotoxicity (LDH, imaging) [4]: mitigates ALS-associated cytotoxicity |
| cyclosporin A [CsA] |  |  |  |  | TDP-43-mediated DNA relocation from mitochondria into the cytoplasm [5]: prevented mtDNA leakage into the cytoplasm; also recorded: significantly reduced; Ifnb1 gene expression induced by TDP-43 [6]: prevents |
| Cc1nn(-c2nc3ccc(Cl)c(Cl)c3[nH]2)c(O)c1C1OC(=O)c2ccccc21 (stereo not shown) [RU.521] |  |  | prevent | prevent | IFNB1 gene induction ([1]; RU.521 10 μM): prevent; TNF gene induction ([1]; RU.521 10 μM): prevent |
| CC1(C)CC(NC(=O)C[P+](c2ccccc2)(c2ccccc2)c2ccccc2)CC(C)(C)N1[O] [MitoTEMPO] | prevent | prevent |  |  |  |
